Reference: paper PMC9106035, “Synthesis, X-ray Structure and Biological Studies of New Self-Assembled Cu(II) Complexes Derived from s-Triazine Schiff Base Ligand” (Molecules, 2022)
In brackets after ≈: the same amount, converted by molar mass.

Legend:
[1] = DPPH radical scavenging assay; format: biochemical
Procedure, shortened: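 Methanolic compound solution was added to 0.004 %w/v methanolic DPPH, and absorbance at 515 nm was followed each minute until stable at 16 min. Percent inhibition was taken as control absorbance at 0 min versus sample at 16 min, in triplicate. IC50 was estimated from dose-response plots, with ascorbic acid as reference.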

[2] = tested on: lung carcinoma A-549 cell line; experiment: Anticancer activity, MTT viability assay; format: cell-based
[3] = Cytotoxic activity on normal cells, MTT viability assay; format: cell-based, human; conditions: human, MRC-5 normal lung fibroblast cells
Experimental: (§1) In this regard, the selectivity index (SI) was calculated as the ratio of cytotoxic effect on the normal cell line to the cytotoxic effect on the cancer cell line.
(§2) Method S4 Evaluation of Cytotoxic activity
(§3) The cells were propagated in Dulbecco’s modified Eagle’s medium (DMEM) supplemented with 10% heat-inactivated fetal bovine serum, 1 % L-glutamine, HEPES buffer and 50µg/mL Gentamycin. All cells were maintained at 37 °C in a humidified atmosphere with 5% CO2 and were subcultured tw o times a week.
(§4) Cytotoxicity evaluation using viability assay
(§5) For cytotoxicity assay, the cells were seeded in 96-well plate at a cell concentration of 1×10^4 cells per well in 100µl of growth medium. Fresh medium containing different concentrations of the test sample was added after 24 h of seeding. Serial two-fold dilutions of the tested chemical compound were added to confluent cell monolayers dispensed into 96-well, flat-bottomed microtiter plates (Falcon, NJ, USA) using a multichannel pipette. The microtiter plates were incubated at 37 °C in a humidified incubator with 5% CO2 for a period of 24 h. Three wells were used for each concentration of the test sample. Control cells were incubated without test sample and with or without DMSO. The little percentage of DMSO present in the […]
(§6) cells for at 37°C, for 24 h, the viabl e cells yield was determined by the MTT test.
(§7) Briefly, the media was removed from the 96 well plate and replaced with 100 µL of fresh culture DMEM m edium without phenol red then 10 µL of the 12 mM MTT stock solution (5 mg of MTT in 1 mL of PBS) to each well including the untreated controls. The 96 well plates were then incubated at 37°C and 5% CO2 for 4 hours. An 85 µL aliquot of the media was removed from t he wells, and 50 µL of DMSO was added to each well and mixed thoroughly with the pipette and incubated at 37°C for 10 min. Then, the optical density was measured at 590 nm with the microplate reader (SunRise, TECAN, Inc, USA) to determine the number of viable cells and the percentage of viability was calculat ed as [(ODt/ODc)]x100% where ODt i s the mean optical density of wells treated with the tested s ample and ODc is the mean optical density of untreated cells. The relation between surviving cells and drug concentration is plotted to get the survival curve of each tumor cell line after treatment with the specified compound. The 50% inhibitory concentration (IC50), the concentration required to cause t oxic effects in 50% of intact cells, was estimated from graphic plots of the dose response curve for each conc. using Graphpad Prism software (San Diego, […]

[4] = tested on: normal human lung fibroblast MRC-5 cells; experiment: as above; format: cell-based; conditions: Homo sapiens, MRC5, MRC-5, Table S10, read-out: Inhibitory %
Experimental: as §1, §2, §3, §4, §5, §6, §7

In the case of CC(=NNc1nc(N2CCOCC2)nc(N2CCOCC2)n1)c1ccccc1N [DMAT, 2-(1-(2-(4,6-dimorpholino-1,3,5-triazin-2-yl)hydrazono)ethyl)aniline], the “DPPH Scavenging %” value ([1]; Conc. 2.5 μg/mL) is reported as 20.79%, the “DPPH Scavenging %” value ([1]; Conc. 5 μg/mL) is reported as 28.65% and the “DPPH Scavenging %” value ([1]; Conc. 10 μg/mL) is reported as 35.17%. For the same compound, the “DPPH Scavenging %” value ([1]; Conc. 20 μg/mL) was 54.23%, the “DPPH Scavenging %” value ([1]; Conc. 40 μg/mL) was 70.89% and the “DPPH Scavenging %” value ([1]; Conc. 80 μg/mL) was 79.28%. For the same compound, the “DPPH Scavenging %” value ([1]; Conc. 160 μg/mL) was 86.59%, the “DPPH Scavenging %” value ([1]; Conc. 320 μg/mL) was 91.37% and the “DPPH Scavenging %” value ([1]; Conc. 640 μg/mL) was 94.08%. For the same compound, the “DPPH Scavenging %” value ([1]; Conc. 1280 μg/mL) was 95.31%, the “IC50 (DPPH scavenging)” value ([1]; antioxidant activity) was 17.83 ± 0.65 µg/mL (≈ 44.7 µM) and the “SI = CC50/IC50” value ([2]; CC50 (MRC-5) / IC50 (A-549)) was 1.30. It also gave a viability at 2.5 µM ([2]; Homo sapiens, A549, A-549, sample conc. 2.5 µM, Table S5) of 100%, an inhibition at 2.5 µM ([2]; Homo sapiens, A549, A-549, sample conc. 2.5 µM, Table S5, read-out: Inhibitory %) of 0% and a viability at 5 µM ([2]; Homo sapiens, A549, A-549, sample conc. 5.0 µM, Table S5) of 100%. For the same compound, the inhibition at 5 µM ([2]; Homo sapiens, A549, A-549, sample conc. 5.0 µM, Table S5, read-out: Inhibitory %) was 0%, the viability at 9.8 µM ([2]; Homo sapiens, A549, A-549, sample conc. 9.8 µM, Table S5) was 100% and the inhibition at 9.8 µM ([2]; Homo sapiens, A549, A-549, sample conc. 9.8 µM, Table S5, read-out: Inhibitory %) was 0%. The viability at 19.6 µM ([2]; Homo sapiens, A549, A-549, sample conc. 19.6 µM, Table S5) was 100%, the inhibition at 19.6 µM ([2]; Homo sapiens, A549, A-549, sample conc. 19.6 µM, Table S5, read-out: Inhibitory %) was 0% and the viability at 39.1 µM ([2]; Homo sapiens, A549, A-549, sample conc. 39.1 µM, Table S5) was 100%. For the same compound, the inhibition at 39.1 µM ([2]; Homo sapiens, A549, A-549, sample conc. 39.1 µM, Table S5, read-out: Inhibitory %) was 0%, the viability at 78.4 µM ([2]; Homo sapiens, A549, A-549, sample conc. 78.4 µM, Table S5) was 100% and the inhibition at 78.4 µM ([2]; Homo sapiens, A549, A-549, sample conc. 78.4 µM, Table S5, read-out: Inhibitory %) was 0%. It also gave a viability at 156.8 µM ([2]; Homo sapiens, A549, A-549, sample conc. 156.8 µM, Table S5) of 98%, an inhibition at 156.8 µM ([2]; Homo sapiens, A549, A-549, sample conc. 156.8 µM, Table S5, read-out: Inhibitory %) of 1.96% and a viability at 313.7 µM ([2]; Homo sapiens, A549, A-549, sample conc. 313.7 µM, Table S5) of 82.7%. For the same compound, the inhibition at 313.7 µM ([2]; Homo sapiens, A549, A-549, sample conc. 313.7 µM, Table S5, read-out: Inhibitory %) was 17.3%, the viability at 627.4 µM ([2]; Homo sapiens, A549, A-549, sample conc. 627.4 µM, Table S5) was 39.6% and the inhibition at 627.4 µM ([2]; Homo sapiens, A549, A-549, sample conc. 627.4 µM, Table S5, read-out: Inhibitory %) was 60.4%. The viability at 1254.8 µM ([2]; Homo sapiens, A549, A-549, sample conc. 1254.8 µM, Table S5) was 17.6%, the inhibition at 1254.8 µM ([2]; Homo sapiens, A549, A-549, sample conc. 1254.8 µM, Table S5, read-out: Inhibitory %) was 82.4% and the IC50 ([2]; Homo sapiens, A549, A-549 cells, 24 h, MTT) was 551 µM. For the same compound, the viability at 24 h, 2.5 µM ([3]; MRC-5, sample conc. 2.5 µM, Table S10) was 100%, the viability at 24 h, 5 µM ([3]; MRC-5, sample conc. 5.0 µM, Table S10) was 100% and the viability at 24 h, 9.8 µM ([3]; MRC-5, sample conc. 9.8 µM, Table S10) was 100%. It also gave a viability at 24 h, 19.6 µM ([3]; MRC-5, sample conc. 19.6 µM, Table S10) of 100%, a viability at 24 h, 39.1 µM ([3]; MRC-5, sample conc. 39.1 µM, Table S10) of 100% and a viability at 24 h, 78.4 µM ([3]; MRC-5, sample conc. 78.4 µM, Table S10) of 100%. The viability at 24 h, 156.8 µM ([3]; MRC-5, sample conc. 156.8 µM, Table S10) was 99.8%, the viability at 24 h, 313.7 µM ([3]; MRC-5, sample conc. 313.7 µM, Table S10) was 89.3% and the viability at 24 h, 627.4 µM ([3]; MRC-5, sample conc. 627.4 µM, Table S10) was 53.9%. It also gave a viability at 24 h, 1254.8 µM ([3]; MRC-5, sample conc. 1254.8 µM, Table S10) of 26.1%, a CC50 at 24 h ([3]; MRC-5 cells, 24 h, MTT) of 716 µM and an inhibition at 2.5 µM ([4]; sample conc. 2.5 µM) of 0%. It also gave an inhibition at 5 µM ([4]; sample conc. 5.0 µM) of 0%, an inhibition at 9.8 µM ([4]; sample conc. 9.8 µM) of 0% and an inhibition at 19.6 µM ([4]; sample conc. 19.6 µM) of 0%. It also gave an inhibition at 39.1 µM ([4]; sample conc. 39.1 µM) of 0%, an inhibition at 78.4 µM ([4]; sample conc. 78.4 µM) of 0% and an inhibition at 156.8 µM ([4]; sample conc. 156.8 µM) of 0.15%. The inhibition at 313.7 µM ([4]; sample conc. 313.7 µM) was 10.7%, the inhibition at 627.4 µM ([4]; sample conc. 627.4 µM) was 46.1% and the inhibition at 1254.8 µM ([4]; sample conc. 1254.8 µM) was 73.9%.
